Measurements reported in patent US20120225061A1, “TETRASUBSTITUTED CYCLOHEXYL COMPOUNDS AS KINASE INHIBITORS” (priority 2011, published 2012).

Experiments:
Pim2 kinase = Pim2 kinase (Homo sapiens, UniProt Q9P1W9); assay: Pim2 AlphaScreen assay (high ATP)
Protocol: (§1) The activity of Pim 1, Pim 2, & Pim 3 is measured using a homogeneous bead based system quantifying the amount of phosphorylated peptide substrate resulting from kinase-catalyzed phosphoryl transfer to a peptide substrate. Compounds to be tested are dissolved in 100% DMSO and directly distributed to a white 384-well plate at 0.25 μl per well. […] This is followed by the addition of 5 μl/well of Pim 1, Pim 2 or Pim 3 kinase in assay buffer (concentrations described below). Final assay concentrations (described below) are in 2.5% DMSO. The reactions are performed for ˜2 hours, then stopped by the addition of 10 μl of 0.75 μg/ml anti-phospho Ser/Thr antibody (Cell Signaling), 10 μg/ml Protein A AlphaScreen beads (Perkin Elmer), and 10 μg/ml streptavidin coated AlphaScreen beads in stop/detection buffer (50 mM EDTA, 95 mM Tris, pH=7.5, 0.01% Tween-20). The stopped reactions are incubated overnight in the dark. The phosphorylated peptide is detected via an oxygen anion initiated chemiluminescence/fluorescence cascade using the Envision plate reader (Perkin Elmer).

Pim1 kinase = Pim1 kinase (Homo sapiens, UniProt P11309); assay: Pim1 AlphaScreen assay (high ATP)
[1] = test system: KMS11 (human myeloma cell line); assay: Cell proliferation assay (CellTiter-Glo) in KMS11 cells; format: cell-based; details: KMS-11, 72 h, Table 5, 3 days, read-out: KMS11-luc EC50
Protocol: KMS11 (human myeloma cell line), were cultured in IMDM supplemented with 10% FBS, sodium pyruvate and antibiotics. Cells were plated in the same medium at a density of 2000 cells per well into 96 well tissue culture plates, with outside wells vacant, on the day of assay.
Test compounds supplied in DMSO were diluted into DMSO at 500 times the desired final concentrations before dilution into culture media to 2 times final concentrations.
After 3 days plates were equilibrated to room temperature and equal volume of CellTiter-Glow Reagent (Promega) was added to the culture wells. The plates were agitated briefly and luminescent signal was measured with luminometer.

Pim3 kinase = Pim3 kinase (Homo sapiens, UniProt Q86V86); assay: Pim3 AlphaScreen assay (high ATP)
Protocol: as §1

Chain of Pim2 kinase (Q9P1W9 whole entry): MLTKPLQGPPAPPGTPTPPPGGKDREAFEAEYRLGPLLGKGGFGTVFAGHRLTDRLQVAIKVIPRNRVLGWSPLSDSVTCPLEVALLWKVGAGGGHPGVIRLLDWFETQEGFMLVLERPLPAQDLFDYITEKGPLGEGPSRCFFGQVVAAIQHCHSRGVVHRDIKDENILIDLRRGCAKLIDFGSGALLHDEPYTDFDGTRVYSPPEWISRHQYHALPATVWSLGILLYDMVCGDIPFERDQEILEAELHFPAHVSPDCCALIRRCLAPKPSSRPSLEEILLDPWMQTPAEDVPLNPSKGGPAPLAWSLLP
Chain of Pim1 kinase (P11309 whole entry): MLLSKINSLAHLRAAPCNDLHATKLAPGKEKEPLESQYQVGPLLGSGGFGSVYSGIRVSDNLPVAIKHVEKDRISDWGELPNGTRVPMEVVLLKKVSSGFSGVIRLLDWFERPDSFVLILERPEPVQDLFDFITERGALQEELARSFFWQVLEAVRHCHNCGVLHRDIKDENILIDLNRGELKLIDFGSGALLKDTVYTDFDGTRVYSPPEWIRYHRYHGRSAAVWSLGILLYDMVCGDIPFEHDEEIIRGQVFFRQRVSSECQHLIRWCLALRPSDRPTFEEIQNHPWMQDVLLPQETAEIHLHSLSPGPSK

| Structure (SMILES) | IC50 (Pim2 kinase) [nM] | IC50 (Pim1 kinase) [nM] | EC50 [1] [nM] | IC50 (Pim3 kinase) [nM] |
| --- | --- | --- | --- | --- |
| C[C@H]1C[C@@H](c2ccncc2NC(=O)c2ccc(F)c(-c3c(F)cc(C4(O)CCC4)cc3F)n2)C[C@@H](N)[C@]1(C)O [Example 95, N-(4-((1R,3R,4R,5S)-3-amino-4-hydroxy-4,5-dimethylcyclohexyl)pyridin-3-yl)-6-(2,6-difluoro-4-(1-hydroxycyclobutyl)phenyl)-5-fluoropicolinamide] | 3.85 | 0.04 | 174 | 2.37 |
| COCc1cc(F)c(-c2nc(C(=O)Nc3cnccc3[C@H]3C[C@@H](N)[C@](C)(O)[C@@H](C)C3)ccc2F)c(F)c1 [Example 4, N-(4-((1R,3R,4R,5S)-3-amino-4-hydroxy-4,5-dimethylcyclohexyl)pyridin-3-yl)-6-(2,6-difluoro-4-(methoxymethyl)phenyl)-5-fluoropicolinamide] | 4.33 | 0.09 | 34 | 2.43 |
| C[C@H]1C[C@@H](c2ccncc2NC(=O)c2ccc(F)c(-c3c(F)cc(C4(O)CCC4)cc3F)n2)C[C@@H](O)[C@]1(C)O [Example 105, 6-(2,6-difluoro-4-(1-hydroxycyclobutyl)phenyl)-N-(4-((1R,3R,4R,5S)-3,4-dihydroxy-4,5-dimethylcyclohexyl)pyridin-3-yl)-5-fluoropicolinamide] | 120 | 0.55 | 2980 | 78.3 |
| C[C@H]1C[C@@H](c2ccncc2NC(=O)c2nc(-c3c(F)cccc3F)ccc2N)C[C@@H](O)[C@@]1(O)CF [Example 18, 3-amino-6-(2,6-difluorophenyl)-N-(4-((1R,3R,4R,5S)-4-(fluoromethyl)-3,4-dihydroxy-5-methylcyclohexyl)pyridin-3-yl) picolinamide] | 47 | 0.67 | 714 | 10.2 |
| C[C@H]1C[C@@H](c2ccncc2NC(=O)c2nc(-c3c(F)cc(C(C)(C)O)cc3F)ccc2N)C[C@@H](O)[C@]1(C)O [Example 114, 3-amino-6-(2,6-difluoro-4-(2-hydroxypropan-2-yl)phenyl)-N-(4-((1R,3R,4R,5S)-3,4-dihydroxy-4,5-dimethylcyclohexyl)pyridin-3-yl)picolinamide] | 21.7 | 0.34 | 924 | 6.93 |
| C[C@@H]1C[C@H](c2ccncc2NC(=O)c2ccc(F)c(-c3c(F)cc(S(C)(=O)=O)cc3F)n2)C[C@H](O)[C@@]1(C)O [Example 10, 6-(2,6-difluoro-4-(methylsulfonyl)phenyl)-N-(4-((1S,3S,4S,5R)-3,4-dihydroxy-4,5-dimethylcyclohexyl)pyridin-3-yl)-5-fluoropicolinamide] | 7110 | 14.6 | > 10000 | 4150 |
| C[C@H]1C[C@@H](c2ccncc2NC(=O)c2ccc(F)c(-c3c(F)cc(N4CCOCC4)cc3F)n2)C[C@@H](N)[C@]1(C)O [Example 87, N-(4-((1R,3R,4R,5S)-3-amino-4-hydroxy-4,5-dimethylcyclohexyl)pyridin-3-yl)-6-(2,6-difluoro-4-morpholinophenyl)-5-fluoropicolinamide] | 1.91 | 0.01 | 57 | 0.41 |
| CSc1cc(F)c(-c2nc(C(=O)Nc3cnccc3[C@H]3C[C@@H](N)[C@](C)(O)[C@@H](C)C3)ccc2F)c(F)c1 [Example 8, N-(4-((1R,3R,4R,5S)-3-amino-4-hydroxy-4,5-dimethylcyclohexyl)pyridin-3-yl)-6-(2,6-difluoro-4-(methylthio)phenyl)-5-fluoropicolinamide] | 6.98 | 0.08 | 234 | 2.04 |
| C[C@H]1C[C@@H](c2ccncc2NC(=O)c2ccc(F)c(-c3c(F)cc(C4(C#N)CCOCC4)cc3F)n2)C[C@@H](N)[C@]1(C)O [Example 88, N-(4-((1R,3R,4R,5S)-3-amino-4-hydroxy-4,5-dimethylcyclohexyl)pyridin-3-yl)-6-(4-(4-cyanotetrahydro-2H-pyran-4-yl)-2,6-difluorophenyl)-5-fluoropicolinamide] | 5.8 | 0.03 | 101 | 5.59 |
| C[C@H]1C[C@@H](c2ccncc2NC(=O)c2nc(-c3c(F)cc(C(C)(C)O)cc3F)c(F)cc2N)C[C@@H](O)[C@]1(C)O [Example 97, 3-amino-6-(2,6-difluoro-4-(2-hydroxypropan-2-yl)phenyl)-N-(4-((1R,3R,4R,5S)-3,4-dihydroxy-4,5-dimethylcyclohexyl)pyridin-3-yl)-5-fluoropicolinamide] | 28.9 | 0.24 | 405 | 8.24 |
| C[C@H]1C[C@@H](c2ccncc2NC(=O)c2nc(-c3c(F)cc(C4(F)CCOCC4)cc3F)sc2N)C[C@@H](N)[C@]1(C)O [Example 84, 5-amino-N-(4-((1R,3R,4R,5S)-3-amino-4-hydroxy-4,5-dimethylcyclohexyl)pyridin-3-yl)-2-(2,6-difluoro-4-(4-fluorotetrahydro-2H-pyran-4-yl)phenyl)thiazole-4-carboxamide] | 2.8 | 0.01 | 343 | 0.48 |
| C[C@H]1C[C@@H](c2ccncc2NC(=O)c2ccc(F)c(-c3c(F)cc(CN4CCCC4=O)cc3F)n2)C[C@@H](O)[C@]1(C)O [Example 77, 6-(2,6-difluoro-4-((2-oxopyrrolidin-1-yl)methyl)phenyl)-N-(4-((1R,3R,4R,5S)-3,4-dihydroxy-4,5-dimethylcyclohexyl)pyridin-3-yl)-5-fluoropicolinamide] | 93.7 | 0.97 | 136 | 83.3 |
| C[C@H]1C[C@@H](c2ccncc2NC(=O)c2ccc(F)c(-c3c(F)cc(N4CCOCC4)cc3F)n2)C[C@@H](O)[C@]1(C)O [Example 109, 6-(2,6-difluoro-4-morpholinophenyl)-N-(4-((1R,3R,4R,5S)-3,4-dihydroxy-4,5-dimethylcyclohexyl)pyridin-3-yl)-5-fluoropicolinamide] | 138 | 0.23 | 781 | 41.3 |
| C[C@H]1C[C@@H](c2ccncc2NC(=O)c2ccc(F)c(-c3c(F)cc(C4(F)CCOCC4)cc3F)n2)C[C@@H](N)[C@]1(C)O [Example 70, N-(4-((1R,3R,4R,5S)-3-amino-4-hydroxy-4,5-dimethylcyclohexyl)pyridin-3-yl)-6-(2,6-difluoro-4-(4-fluorotetrahydro-2H-pyran-4-yl)phenyl)-5-fluoropicolinamide] | 2.21 | 0.04 | 136 | 1.73 |
| C[C@H]1C[C@@H](c2ccncc2NC(=O)c2ccc(F)c(-c3c(F)cc(C4(O)COC4)cc3F)n2)C[C@@H](O)[C@]1(C)O [Example 76] | 264 | 0.82 | 1140 | 117 |
| C[C@H]1C[C@@H](c2ccncc2NC(=O)c2ccc(F)c(-c3c(F)cc(C4CCOCC4)cc3F)n2)C[C@@H](O)[C@]1(C)O [Example 108, 6-(2,6-difluoro-4-(tetrahydro-2H-pyran-4-yl)phenyl)-N-(4-((1R,3R,4R,5S)-3,4-dihydroxy-4,5-dimethylcyclohexyl)pyridin-3-yl)-5-fluoropicolinamide] | 66.2 | 0.2 | 206 | 30.7 |
| CC(C)OCc1cc(F)c(-c2nc(C(=O)Nc3cnccc3[C@H]3C[C@@H](N)[C@](C)(O)[C@@H](C)C3)ccc2F)c(F)c1 [Example 91, N-(4-((1R,3R,4R,5S)-3-amino-4-hydroxy-4,5-dimethylcyclohexyl)pyridin-3-yl)-6-(2,6-difluoro-4-(isopropoxymethyl)phenyl)-5-fluoropicolinamide] | 2.4 | 0.07 | 102 | 1.62 |
| COCCOc1cc(F)c(-c2nc(C(=O)Nc3cnccc3[C@H]3C[C@@H](O)[C@](C)(O)[C@@H](C)C3)c(N)cc2F)c(F)c1 [Example 98, 3-amino-6-(2,6-difluoro-4-(2-methoxyethoxy)phenyl)-N-(4-((1R,3R,4R,5S)-3,4-dihydroxy-4,5-dimethylcyclohexyl)pyridin-3-yl)-5-fluoropicolinamide] | 133 | 0.83 | 427 | 40.2 |
| C[C@H]1C[C@@H](c2ccncc2NC(=O)c2ccc(F)c(-c3c(F)cc(C4CC4)cc3F)n2)C[C@@H](N)[C@]1(C)O [Example 67, N-(4-((1R,3R,4R,5S)-3-amino-4-hydroxy-4,5-dimethylcyclohexyl)pyridin-3-yl)-6-(4-cyclopropyl-2,6-difluorophenyl)-5-fluoropicolinamide] | 2.5 | 0.01 | 127 | 0.96 |
| C[C@H]1C[C@@H](c2ccncc2NC(=O)c2ccc(F)c(-c3c(F)cc(C(C)(C)C#N)cc3F)n2)C[C@@H](N)[C@]1(C)O [Example 86, N-(4-((1R,3R,4R,5S)-3-amino-4-hydroxy-4,5-dimethylcyclohexyl)pyridin-3-yl)-6-(4-(2-cyanopropan-2-yl)-2,6-difluorophenyl)-5-fluoropicolinamide] | 2.74 | 0.03 | 66 | 2.46 |
| C[C@H]1C[C@@H](c2ccncc2NC(=O)c2ccc(F)c(-c3c(F)cc(C4CCS(=O)(=O)CC4)cc3F)n2)C[C@@H](O)C1(C)O (stereo in doubt) [Example 120, N-(4-((1R,3R,4S,5S)-3,4-dihydroxy-4,5-dimethylcyclohexyl)pyridin-3-yl)-6-(4-(1,1-dioxidotetrahydro-2H-thiopyran-4-yl)-2,6-difluorophenyl)-5-fluoropicolinamide] | 48.7 | 0.26 | 723 | 31.5 |
